Laboratory results: ChEMBL document CHEMBL1201862, “PubChem BioAssay data set” (2004)
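Exposure lasted 48 hours, with cells grown in 96-well plates and compounds tested at five concentrations. Here, GI50 denotes the concentration required for 50% inhibition of growth.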 Calls of active or inactive are those of the source. Rule as the data show it: active = GI50 up to about 1.1 µM and inactive = higher.

Legend:
Assay in all cases: NCI tumour cell line growth inhibition, 48 h
[1] = test system: SF-295
[2] = test system: MOLT-4
[3] = test system: HOP-92
[4] = test system: UACC-62
[5] = test system: 786-0
[6] = test system: IGROV-1
[7] = test system: MDA-MB-435
[8] = test system: SF-268
[9] = test system: NCI-H460
[10] = test system: LOX IMVI
[11] = test system: SN12C
[12] = test system: UACC-257
[13] = test system: RPMI-8226
[14] = test system: CCRF-CEM
[15] = test system: M14
[16] = test system: EKVX
[17] = test system: HL-60

Row | Structure (SMILES) | GI50 [1] | GI50 [2] | GI50 [3] | GI50 [4] | GI50 [5] | GI50 [6] | GI50 [7] | GI50 [8] | GI50 [9] | GI50 [10] | GI50 [11] | GI50 [12] | GI50 [13] | GI50 [14] | GI50 [15] | GI50 [16] | GI50 [17]
1 | O=C1C2CCCCC2C(=O)N1n1c(Cc2ccccc2)n[nH]c1=O (stereo not given) | > 100 µM (inactive) | > 100 µM (inactive) | > 100 µM (inactive) | > 100 µM (inactive) | > 100 µM (inactive) | > 100 µM (inactive) | > 100 µM (inactive) | > 100 µM (inactive) | > 100 µM (inactive) | > 100 µM (inactive) | > 100 µM (inactive) | > 100 µM (inactive) | > 100 µM (inactive) | > 100 µM (inactive) | > 100 µM (inactive) | > 100 µM (inactive) | –
2 | Cc1nc2cccc([N+](=O)[O-])c2n1CCCN(C)C | > 100 µM (inactive) | – | – | > 100 µM (inactive) | > 100 µM (inactive) | > 100 µM (inactive) | > 100 µM (inactive) | > 100 µM (inactive) | > 100 µM (inactive) | > 100 µM (inactive) | > 100 µM (inactive) | > 100 µM (inactive) | > 100 µM (inactive) | > 100 µM (inactive) | 22.6 µM (inactive) | > 100 µM (inactive) | > 100 µM (inactive)
3 | [N-]=[N+]=Nc1ccc(NCCCCCC(=O)ON2C(=O)CCC2=O)c([N+](=O)[O-])c1 | > 100 µM (inactive) | 15.4 µM (inactive) | 10.3 µM (inactive) | 33.1 µM (inactive) | > 100 µM (inactive) | > 100 µM (inactive) | 48.1 µM (inactive) | 39.3 µM (inactive) | 61.7 µM (inactive) | 48.8 µM (inactive) | 27.4 µM (inactive) | > 100 µM (inactive) | – | – | 58.3 µM (inactive) | 98.9 µM (inactive) | 32.5 µM (inactive)
4 | CC1=NOC2(C1)C(=O)Nc1ccccc12 (stereo not given) | > 100 µM (inactive) | > 100 µM (inactive) | – | > 100 µM (inactive) | > 100 µM (inactive) | > 100 µM (inactive) | > 100 µM (inactive) | > 100 µM (inactive) | > 100 µM (inactive) | > 100 µM (inactive) | > 100 µM (inactive) | > 100 µM (inactive) | > 100 µM (inactive) | > 100 µM (inactive) | > 100 µM (inactive) | > 100 µM (inactive) | > 100 µM (inactive)
5 | CN(C)CCCOc1nc2c(c(=O)n(C)c(=O)n2C)n1C.SC1=NC=NC2=NC=NC12 | 2.22 µM (inactive) | 0.43 µM (active) | > 100 µM (inactive) | 1.14 µM (inactive) | 2.41 µM (inactive) | 5.93 µM (inactive) | 1.7 µM (inactive) | 6.31 µM (inactive) | 8.43 µM (inactive) | 0.303 µM (active) | 4.06 µM (inactive) | 6 µM (inactive) | 0.757 µM (active) | 2.17 µM (inactive) | 8.38 µM (inactive) | 33.7 µM (inactive) | –
6 | COC(=O)/C=C1\C(CO[Si](C)(C)C(C)(C)C)OC(n2cc(C)c(=O)n(C)c2=O)C1O[Si](C)(C)C(C)(C)C (stereo not given) | > 100 µM (inactive) | > 100 µM (inactive) | > 100 µM (inactive) | > 100 µM (inactive) | > 100 µM (inactive) | > 100 µM (inactive) | 62.4 µM (inactive) | > 100 µM (inactive) | – | 89.5 µM (inactive) | > 100 µM (inactive) | – | 78 µM (inactive) | > 100 µM (inactive) | > 100 µM (inactive) | > 100 µM (inactive) | –
7 | CCCCCCC1OC23OC1CCC2C(O)CCC3O (stereo not given) | > 100 µM (inactive) | > 100 µM (inactive) | – | > 100 µM (inactive) | > 100 µM (inactive) | > 100 µM (inactive) | > 100 µM (inactive) | > 100 µM (inactive) | > 100 µM (inactive) | > 100 µM (inactive) | > 100 µM (inactive) | > 100 µM (inactive) | > 100 µM (inactive) | – | – | > 100 µM (inactive) | > 100 µM (inactive)
8 | CCOC(=O)c1c(N)sc2c1C(C(=O)OCC)CC2 (stereo not given) | – | 35.6 µM (inactive) | > 100 µM (inactive) | 91.4 µM (inactive) | > 100 µM (inactive) | 44.7 µM (inactive) | – | – | 62.1 µM (inactive) | – | 40.5 µM (inactive) | > 100 µM (inactive) | 45.3 µM (inactive) | – | > 100 µM (inactive) | > 100 µM (inactive) | 31.5 µM (inactive)
9 | C/C(=N\Nc1nc2ccccc2s1)c1ccncn1 | 3.31 µM (inactive) | 0.145 µM (active) | 0.817 µM (active) | 1.44 µM (inactive) | 0.719 µM (active) | 0.485 µM (active) | 2.69 µM (inactive) | 0.603 µM (active) | 0.438 µM (active) | – | 0.379 µM (active) | 0.719 µM (active) | 1 µM (active) | 0.117 µM (active) | 0.51 µM (active) | 0.245 µM (active) | –
10 | O=C(CSCC(=O)N/N=C\c1cc(Br)cc(Br)c1O)N/N=C\c1cc(Br)cc(Br)c1O | 33.6 µM (inactive) | 13 µM (inactive) | 19.5 µM (inactive) | 18 µM (inactive) | 32.5 µM (inactive) | 16.6 µM (inactive) | 40.9 µM (inactive) | 11.3 µM (inactive) | 44.6 µM (inactive) | 6.68 µM (inactive) | 27.8 µM (inactive) | 23.5 µM (inactive) | – | – | 11.6 µM (inactive) | 37.1 µM (inactive) | –
11 | c1ccc2c(c1)ccc1cc3cc(NCCCCNc4ccc5nc6c(ccc7ccccc76)cc5c4)ccc3nc12 | 1.38 µM (inactive) | 0.184 µM (active) | 1.58 µM (inactive) | 1.67 µM (inactive) | 0.291 µM (active) | 1.41 µM (inactive) | 1.83 µM (inactive) | 1.82 µM (inactive) | 0.231 µM (active) | 1.71 µM (inactive) | 1.41 µM (inactive) | 1.72 µM (inactive) | 0.323 µM (active) | 0.427 µM (active) | 1.72 µM (inactive) | 2.03 µM (inactive) | –
12 | CCC(C)c1cnc(CC(C)C)c(=O)[nH]1 (stereo not given) | > 100 µM (inactive) | > 100 µM (inactive) | > 100 µM (inactive) | > 100 µM (inactive) | > 100 µM (inactive) | > 100 µM (inactive) | > 100 µM (inactive) | > 100 µM (inactive) | > 100 µM (inactive) | > 100 µM (inactive) | > 100 µM (inactive) | > 100 µM (inactive) | > 100 µM (inactive) | 89.5 µM (inactive) | > 100 µM (inactive) | > 100 µM (inactive) | –
13 | CC1(C)CC(=O)C2=C(C1)NC(SCC(=O)O)=C(C#N)C2c1ccc(Br)cc1 (stereo not given) | > 100 µM (inactive) | – | 27.4 µM (inactive) | > 100 µM (inactive) | > 100 µM (inactive) | > 100 µM (inactive) | > 100 µM (inactive) | > 100 µM (inactive) | > 100 µM (inactive) | > 100 µM (inactive) | – | > 100 µM (inactive) | – | > 100 µM (inactive) | > 100 µM (inactive) | > 100 µM (inactive) | > 100 µM (inactive)
14 | O=C(N/N=C/c1ccc(Br)cc1)N/N=C/c1ccc(Br)cc1 | 6.19 µM (inactive) | 4.42 µM (inactive) | – | 12.6 µM (inactive) | 3.92 µM (inactive) | 4.72 µM (inactive) | 12.3 µM (inactive) | 10.4 µM (inactive) | – | 3.98 µM (inactive) | 3.52 µM (inactive) | 17.6 µM (inactive) | 10.6 µM (inactive) | 3.24 µM (inactive) | 11.1 µM (inactive) | 10.3 µM (inactive) | 13.2 µM (inactive)
15 | COC(=O)c1sc(=S)sc1SCc1ccccc1CSc1sc(=S)sc1C(=O)OC | 58.9 µM (inactive) | > 100 µM (inactive) | > 100 µM (inactive) | > 100 µM (inactive) | 46.1 µM (inactive) | > 100 µM (inactive) | > 100 µM (inactive) | > 100 µM (inactive) | > 100 µM (inactive) | > 100 µM (inactive) | > 100 µM (inactive) | > 100 µM (inactive) | – | 27.5 µM (inactive) | > 100 µM (inactive) | > 100 µM (inactive) | –
16 | Cc1ncc([N+](=O)[O-])n1CCN(C)CCCCn1ccnc1[N+](=O)[O-] | > 100 µM (inactive) | > 100 µM (inactive) | – | > 100 µM (inactive) | > 100 µM (inactive) | – | > 100 µM (inactive) | > 100 µM (inactive) | > 100 µM (inactive) | > 100 µM (inactive) | > 100 µM (inactive) | > 100 µM (inactive) | > 100 µM (inactive) | > 100 µM (inactive) | > 100 µM (inactive) | > 100 µM (inactive) | > 100 µM (inactive)
17 | CCn1c(SCC(=O)NNC(=S)Nc2ccc(F)cc2)nc2ccccc2c1=O | > 100 µM (inactive) | 44.4 µM (inactive) | – | 58.7 µM (inactive) | > 100 µM (inactive) | > 100 µM (inactive) | > 100 µM (inactive) | 79.8 µM (inactive) | 0.472 µM (active) | > 100 µM (inactive) | > 100 µM (inactive) | > 100 µM (inactive) | 63.5 µM (inactive) | > 100 µM (inactive) | > 100 µM (inactive) | > 100 µM (inactive) | > 100 µM (inactive)
18 | CCN(CC(COc1ccc2c(c1)[n+]([O-])nc(N)[n+]2[O-])OC(C)=O)C(C)=O (stereo not given) | > 100 µM (inactive) | 20.8 µM (inactive) | – | 29.6 µM (inactive) | 93.1 µM (inactive) | 29.1 µM (inactive) | 90.4 µM (inactive) | 56 µM (inactive) | > 10 µM (inactive) | 58.3 µM (inactive) | > 100 µM (inactive) | 76.7 µM (inactive) | > 100 µM (inactive) | 48.2 µM (inactive) | 89.3 µM (inactive) | 52.2 µM (inactive) | 80.4 µM (inactive)
